Measurements taken from ChEMBL document CHEMBL6078646, “Target Ligand Separation and Identification of Isoforsythiaside as a Histone Lysine-Specific Demethylase 1 Covalent Inhibitor Against Breast Cancer Metastasis” (J Med Chem, 2024).
Activity calls are given as the source filed them. The rule behind the calls is not given here.

Columns and labels:
[1] = biological target: T1, Lysine-specific histone demethylase 1A (Homo sapiens, UniProt O60341); assay: Binding affinity to LSD1 (unknown origin) assessed as protection of pronase-dependent degradation at 15 to 75 uM preincubated for 30 mins followed by pronase addition and measured after 30 mins by DARTS assay; details: dose 15-75 µM, time 60.0 min
Homo sapiens [2] = organism: Homo sapiens; assay: Binding affinity to recombinant LSD1 Ser817A mutant (unknown origin) assessed as thermal stability at 50 uM preincubated for 30 mins followed by incubation under 37 to 52 degreeC for 5 mins by CETSA; details: time 35.0 min
MDA-MB-231 [3] = assay: Induction of LSD1 degradation in human MDA-MB-231 cells incubated for 12 hrs by Western blotting analysis; type: cell-based
[4] = biological target: T1, Lysine-specific histone demethylase 1A; assay: Inhibition of LSD1 in human MDA-MB-231 cells assessed as increase in H3K4me1 accumulation by Western blotting analysis; type: cell-based; details: dose 0-32 µM
[5] = biological target: T1, Lysine-specific histone demethylase 1A; assay: Non-competitive inhibition of LSD1 (unknown origin) using H3K4me2 as substrate by Lineweaver-Burk plot analysis
[6] = biological target: T1, Lysine-specific histone demethylase 1A; assay: Inhibition of LSD1 (unknown origin) at 0.32 to 6.40 uM; details: dose 0.32-6.4 µM, time 0-25 min
[7] = Toxicity in female Balb/c mouse assessed as effect on ALT level at 50 mg/kg, ip administered every other day for 7 times; type: organism-based; details: in vivo
MDA-MB-231 [8] = assay: Upregulation of RBMS3 mRNA level in human MDA-MB-231 cells by qRT-PCR analysis; type: functional, cell-based; details: dose 4-32 µM
[9] = Toxicity in female Balb/c nude mouse xenografted with human MDA-MB-231 cells expressing luciferase assessed as appearance of heart lesions at 12 to 50 mg/kg, ip administered every 3 days and measured after 30 days by H and E staining based analysis; type: organism-based; details: in vivo, 720 h, dose 12-50 mg/kg, time 30 day
[10] = biological target: T1, Lysine-specific histone demethylase 1A; assay: Stabilization of LSD1 in human MDA-MB-231 cells incubated for 24 hrs in presence of cycloheximide by Western blotting analysis; type: cell-based
MDA-MB-231 [11] = assay: Antimetastatic activity against human MDA-MB-231 cells expressing luciferase xenografted in female Balb/c nude mouse assessed as reduction in fluorescence intensity in lungs at 12 mg/kg, ip administered every 3 days and measured on day 15 by bioluminescence imaging analysis relative to control; type: functional; set-up: scale not given: the % may be the effect or the level left; details: time 15 day
[12] = biological target: T1, Lysine-specific histone demethylase 1A; assay: Binding affinity to recombinant LSD1 (unknown origin) at S817 residue by LC-MS/MS analysis
MDA-MB-231 [13] = assay: Antimetastatic activity against human MDA-MB-231 cells expressing luciferase xenografted in female Balb/c nude mouse assessed as reduction in fluorescence intensity in lungs at 25 mg/kg, ip administered every 3 days and measured on day 15 by bioluminescence imaging analysis relative to control; type: functional; set-up: scale not given: the % may be the effect or the level left; details: time 15 day
[14] = Toxicity in female Balb/c nude mouse xenografted with human MDA-MB-231 cells expressing luciferase assessed as abnormalities spleen at 12 to 50 mg/kg, ip administered every 3 days and measured after 30 days by H and E staining based analysis; type: organism-based; details: in vivo, 720 h, dose 12-50 mg/kg, time 30 day
MDA-MB-231 [15] = assay: Upregulation of RBMS3 protein expression in human MDA-MB-231 cells at 4 to 32 uM by Western blotting analysis; type: functional, cell-based; details: dose 4-32 µM
[16] = Toxicity in female Balb/c mouse assessed as effect on LDH level at 50 mg/kg, ip administered every other day for 7 times; type: organism-based; details: in vivo
[17] = biological target: T1, Lysine-specific histone demethylase 1A; assay: Inhibition of LSD1 in human MDA-MB-231 cells assessed as increase in H3K4me2 accumulation by Western blotting analysis; type: cell-based; details: dose 0-32 µM
Homo sapiens [18] = organism: Homo sapiens; assay: Binding affinity to recombinant LSD1 Ser817A mutant (unknown origin) assessed as protection of pronase-dependent degradation at 15 to 75 uM preincubated for 30 mins followed by pronase addition and measured after 30 mins by DARTS assay; details: dose 15-75 µM, time 60.0 min
MDA-MB-231 [19] = assay: Inhibition of cell migration in human MDA-MB-231 cells incubated for 24 hrs by phase contrast microscopy based wound healing assay; type: functional; details: dose 0-32 µM
MDA-MB-231 [20] = assay: Antimetastatic activity against human MDA-MB-231 cells expressing luciferase xenografted in female Balb/c nude mouse assessed as reduction in number of metastatic nodules in the lung at 50 mg/kg, ip administered every 3 days and measured after 30 days by H and E staining based histopathological analysis relative to control; type: functional; set-up: scale not given: the % may be the effect or the level left; details: time 30 day
MDA-MB-231 [21] = assay: Antimetastatic activity against LSD1 knockout human MDA-MB-231 cells xenografted in wild type zebrafish yolk sac assessed as inhibition of cell migration at 12.5 mg/L incubated for 3 days by fluorescence microscopic analysis; type: functional, cell-based; details: time 3.0 day
MDA-MB-231 [22] = assay: Inhibition of Twist1 production in human MDA-MB-231 cells by Western blotting analysis; type: functional, cell-based
[23] = Toxicity in female Balb/c mouse assessed as effect on monocytes level at 50 mg/kg, ip administered every other day for 7 times; type: organism-based; details: in vivo
MDA-MB-231 [24] = assay: Antimetastatic activity against LSD1 knockout human MDA-MB-231 cells xenografted in mouse model assessed as reduction in number of metastatic nodules in the lung measured after 27 days; type: functional, cell-based; details: time 27.0 day
MDA-MB-231 [25] = assay: Antimetastatic activity against human MDA-MB-231 cells expressing luciferase xenografted in female Balb/c nude mouse assessed as reduction in lung metastasis at 12 to 50 mg/kg, ip administered every 3 days and measured on day 30 by bioluminescence imaging analysis; type: functional, organism-based; details: dose 12-50 mg/kg, time 30.0 day
Homo sapiens [26] = organism: Homo sapiens; assay: Inhibition of recombinant LSD1 Ser817A mutant (unknown origin)
MDA-MB-231 [27] = assay: Upregulation of H3K4me2 protein expression in human MDA-MB-231 cells by Western blot analysis; type: functional, cell-based; details: dose 4-32 µM
[28] = biological target: T1, Lysine-specific histone demethylase 1A; assay: Non-competitive inhibition of LSD1 (unknown origin) in presence of FAD by Lineweaver-Burk plot analysis
[29] = Half-life in male Sprague-Dawley rat at 10 mg/kg, ip measured at 0 to 1440 mins by LC-MS/MS analysis; type: ADME, organism-based; details: in vivo, time 0-1440 min
[30] = Toxicity in female Balb/c mouse assessed as effect on AST level at 50 mg/kg, ip administered every other day for 7 times; type: organism-based; details: in vivo
[31] = biological target: T1, Lysine-specific histone demethylase 1A; assay: Inhibition of recombinant His-tagged LSD1 (157 to 852 residues) (unknown origin) expressed in Escherichia coli BL21 (DE3) cells using H3K4me2 peptide as substrate incubated for 30 mins by fluorescence microplate reader analysis
[32] = Toxicity in female Balb/c mouse assessed as effect on hemoglobin level at 50 mg/kg, ip administered every other day for 7 times; type: organism-based; details: in vivo
MDA-MB-231 [33] = assay: Antimetastatic activity against human MDA-MB-231 cells expressing luciferase xenografted in female Balb/c nude mouse assessed as reduction in fluorescence intensity in lungs at 50 mg/kg, ip administered every 3 days and measured on day 15 by bioluminescence imaging analysis relative to control; type: functional; set-up: scale not given: the % may be the effect or the level left; details: time 15 day
[34] = Toxicity in female Balb/c nude mouse xenografted with human MDA-MB-231 cells expressing luciferase assessed as appearance of kidney lesions at 12 to 50 mg/kg, ip administered every 3 days and measured after 30 days by H and E staining based analysis; type: organism-based; details: in vivo, 720 h, dose 12-50 mg/kg, time 30 day
MDA-MB-231 [35] = assay: Effect on LSD1 protein expression in human MDA-MB-231 cells at 4 to 32 uM by Western blot analysis; type: functional, cell-based; details: dose 4-32 µM
MDA-MB-231 [36] = assay: Antimetastatic activity against LSD1 knockout human MDA-MB-231 cells xenografted in mouse model assessed as reduction in metastatic nodules in lung measured after 27 days by H and E staining based analysis; type: functional, cell-based; details: time 27.0 day

For `C[C@@H]1O[C@H](OC[C@H]2O[C@@H](OCCc3ccc(O)c(O)c3)[C@H](O)[C@@H](OC(=O)/C=C/c3ccc(O)c(O)c3)[C@@H]2O)[C@H](O)[C@H](O)[C@H]1O`, the Activity [1] was “Active”, the Activity (Homo sapiens [2]) was “inactive” and the Activity (MDA-MB-231 [3]) was “Active”. For the same molecule, the inhibition [4] was “Dose-dependent-effect”, the inhibition [5] was “Active” and the inhibition [6] was “Time-dependent-effect”. The Activity [7] was “Non-toxic”, the Activity (MDA-MB-231 [8]) was “Dose-dependent-effect” and the Activity [9] was “Non-toxic”. The Activity [10] was “Active”, the Activity (MDA-MB-231 [11]) was 32.9% and the Activity [12] was “Active”. For the same molecule, the Activity (MDA-MB-231 [13]) was 46.4%, the Activity [14] was “Non-toxic” and the Activity (MDA-MB-231 [15]) was “Active”. For the same molecule, the Activity [16] was “Non-toxic”, the inhibition [17] was “Dose-dependent-effect” and the Activity (Homo sapiens [18]) was “inactive”. The inhibition (MDA-MB-231 [19]) was “Dose-dependent-effect”, the Activity (MDA-MB-231 [20]) was 52.5% and the Activity (MDA-MB-231 [21]) was “Active; No Significant Difference With Lsd1 Knockout Control Group”. The inhibition (MDA-MB-231 [22]) was “Dose-dependent-effect”, the Activity [23] was “Non-toxic” and the Activity (MDA-MB-231 [24]) was “Active”. For the same molecule, the Activity (MDA-MB-231 [25]) was “Active”, the inhibition (Homo sapiens [26]) was “inactive” and the Activity (MDA-MB-231 [27]) was “Dose-dependent-effect”. The inhibition [28] was “Active”, the half-life [29] was 34.8 min and the Activity [30] was “Non-toxic”. For the same molecule, the IC50 [31] was 1580 nM, the Activity [32] was “Non-toxic” and the Activity (MDA-MB-231 [33]) was 73.3%. For the same molecule, the Activity [34] was “Non-toxic”, the Activity (MDA-MB-231 [35]) was “inactive” and the Activity (MDA-MB-231 [36]) was “Active; No Significant Difference Compared To Lsd1 Knockout Control Group”.
